US11753445B2, “Therapeutic peptides” (COHBAR, INC., priority 2016, dated 2023)
Peptide text beside a SMILES is read from it.

Tested on: 3T3-L1 Adipocytes
Assay: Free fatty acid levels in cultured mouse 3T3-L1 adipocytes, isoproterenol stimulated (Example 2)
Type: cell-based
Conditions: test peptides 25 μM; isoproterenol 1 nM
How it was run: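 3T3-L1 cells differentiated 12–17 days into adipocytes, then exposed to test peptides at 25 μM final for 18–20 h, then 1 h, then 3 h with isoproterenol (1 nM) at 37 °C. Free fatty acids in the medium measured colorimetrically at 540 nm, corrected for untreated background and expressed relative to isoproterenol-only cells.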

Row | Compound | Free Fatty Acid Levels in 3T3-L1 Adipocytes Expressed as a Percent of Isoproterenol Control: Percent of Control Value [%]
1 | CC[C@H](C)[C@H](NC(=O)[C@H](Cc1ccc(O)cc1)NC(=O)CNC(=O)[C@H](CCSC)NC(=O)[C@H](CCC(=O)O)NC(=O)[C@H](CCC(N)=O)NC(=O)[C@H](Cc1c[nH]c2ccccc12)NC(=O)[C@H](CCCNC(=N)N)NC(=O)[C@H](CCSC)NC(C)=O)C(=O)N[C@H](C)C(=O)N[C@@H](Cc1ccc(O)cc1)C(=O)N1CCC[C@H]1C(=O)N[C@@H](CCCNC(=N)N)C(=O)N[C@@H](CCCCN)C(=O)N[C@@H](CC(C)C)C(=O)N[C@@H](CCCNC(=N)N)C(N)=O [compound 161] (HELM PEPTIDE1{[ac].M.R.W.Q.E.M.G.Y.I.[dA].Y.P.R.K.L.R.[am]}$$$$V2.0) | 83.7
2 | Ac-MRWQEMGYIFYPKKLR-NH2 [compound 129] | 82.5
3 | CC[C@H](C)[C@H](NC(=O)[C@H](Cc1ccc(O)cc1)NC(=O)CNC(=O)[C@H](CCSC)NC(=O)[C@@H](C)NC(=O)[C@H](CCC(N)=O)NC(=O)[C@H](Cc1c[nH]c2ccccc12)NC(=O)[C@H](CCCNC(=N)N)NC(=O)[C@H](CCSC)NC(C)=O)C(=O)N[C@@H](Cc1ccccc1)C(=O)N[C@@H](Cc1ccc(O)cc1)C(=O)N1CCC[C@H]1C(=O)N[C@@H](CCCNC(=N)N)C(=O)N[C@@H](CCCCN)C(=O)N[C@@H](CC(C)C)C(=O)N[C@@H](CCCNC(=N)N)C(N)=O [compound 156] (HELM PEPTIDE1{[ac].M.R.W.Q.[dA].M.G.Y.I.F.Y.P.R.K.L.R.[am]}$$$$V2.0) | 94.7
4 | CC[C@H](C)[C@H](NC(=O)[C@H](Cc1ccc(O)cc1)NC(=O)CNC(=O)[C@H](CCSC)NC(=O)[C@H](CCC(=O)O)NC(=O)[C@H](CCC(N)=O)NC(=O)[C@H](Cc1c[nH]c2ccccc12)NC(=O)[C@H](CCCNC(=N)N)NC(=O)[C@H](CCSC)NC(C)=O)C(=O)N[C@@H](Cc1ccccc1)C(=O)N[C@@H](Cc1ccc(O)cc1)C(=O)N1CCC[C@H]1C(=O)N[C@@H](CCCNC(=N)N)C(=O)N[C@@H](CCCCN)C(=O)N[C@@H](CC(C)C)C(=O)N[C@H](C)C(N)=O [compound 167] (HELM PEPTIDE1{[ac].M.R.W.Q.E.M.G.Y.I.F.Y.P.R.K.L.[dA].[am]}$$$$V2.0) | 70.9
5 | CC[C@H](C)[C@@H]1NC(=O)[C@H](Cc2ccc(O)cc2)NC(=O)CNC(=O)[C@@H](NC(=O)[C@H](CCC(=O)O)NC(=O)[C@H](CCC(N)=O)NC(=O)[C@H](Cc2c[nH]c3ccccc23)NC(=O)[C@H](CCCNC(=N)N)NC(=O)[C@H](CCSC)NC(C)=O)CCC(=O)NCCCC[C@@H](C(=O)N[C@@H](CCCNC(=N)N)C(=O)N[C@@H](CCCCN)C(=O)N[C@@H](CC(C)C)C(=O)N[C@@H](CCCNC(=N)N)C(N)=O)NC(=O)[C@H](Cc2ccc(O)cc2)NC(=O)[C@H](Cc2ccccc2)NC1=O [compound 226] (HELM PEPTIDE1{[ac].M.R.W.Q.E.E.G.Y.I.F.Y.K.R.K.L.R.[am]}$PEPTIDE1,PEPTIDE1,7:R3-13:R3$$$V2.0) | 79.8
6 | CC[C@H](C)[C@H](NC(=O)[C@H](Cc1ccc(O)cc1)NC(=O)CNC(=O)[C@H](CCSC)NC(=O)[C@H](CCC(=O)O)NC(=O)[C@H](CCC(N)=O)NC(=O)[C@H](Cc1c[nH]c2ccccc12)NC(=O)[C@H](CCCNC(=N)N)NC(=O)[C@H](CCSC)NC(C)=O)C(=O)N[C@@H](Cc1ccccc1)C(=O)N[C@H](C)C(=O)N1CCC[C@H]1C(=O)N[C@@H](CCCNC(=N)N)C(=O)N[C@@H](CCCCN)C(=O)N[C@@H](CC(C)C)C(=O)N[C@@H](CCCNC(=N)N)C(N)=O [compound 162] (HELM PEPTIDE1{[ac].M.R.W.Q.E.M.G.Y.I.F.[dA].P.R.K.L.R.[am]}$$$$V2.0) | 82.4
7 | H-MRWQEMEYIFYPRKLR-OH [compound 173] | 43.9
8 | H-MGWQEMGYIFYPRKLR-OH [compound 77] | 112.5
9 | CC[C@H](C)[C@@H]1NC(=O)[C@H](Cc2ccc(O)cc2)NC(=O)CNC(=O)[C@@H](NC(=O)[C@H](CCC(=O)O)NC(=O)[C@H](CCC(N)=O)NC(=O)[C@H](Cc2c[nH]c3ccccc23)NC(=O)[C@H](CCCNC(=N)N)NC(=O)[C@@H](N)CCSC)CSSC[C@@H](C(=O)N[C@@H](CCCNC(=N)N)C(=O)N[C@@H](CCCCN)C(=O)N[C@@H](CC(C)C)C(=O)N[C@@H](CCCNC(=N)N)C(=O)O)NC(=O)[C@H](Cc2ccc(O)cc2)NC(=O)[C@H](Cc2ccccc2)NC1=O [compound 220] (HELM PEPTIDE1{M.R.W.Q.E.C.G.Y.I.F.Y.C.R.K.L.R}$PEPTIDE1,PEPTIDE1,6:R3-12:R3$$$V2.0) | 70.5
10 | CC[C@H](C)[C@H](NC(=O)[C@H](Cc1ccc(O)cc1)NC(=O)CNC(=O)[C@H](C)NC(=O)[C@H](CCC(=O)O)NC(=O)[C@H](CCC(N)=O)NC(=O)[C@H](Cc1c[nH]c2ccccc12)NC(=O)[C@H](CCCNC(=N)N)NC(=O)[C@@H](C)N)C(=O)N[C@@H](C)C(=O)N[C@@H](CCC(=O)O)C(=O)N1CCC[C@H]1C(=O)N[C@@H](CCCNC(=N)N)C(=O)N[C@@H](CCCCN)C(=O)N[C@@H](CC(C)C)C(=O)N[C@H](C)C(=O)O [compound 246] (HELM PEPTIDE1{[dA].R.W.Q.E.A.G.Y.I.A.E.P.R.K.L.[dA]}$$$$V2.0) | 73.9
11 | H-ERWQEAGYIFYPRKLA-OH [compound 233] | 69.7
12 | Ac-MRWQEMAYIFYPRKLR-NH2 [compound 28] | 35.5
13 | Ac-MRWQEMGYIFYPRKER-NH2 [compound 196] | 80.5
14 | Ac-MRWQEMGYEFYPRKLR-NH2 [compound 190] | 95.0
15 | H-MKWQEMGYIFYPRKLR-OH [compound 122] | 52.1
16 | H-MGYIFYPRKLR-OH [compound 42] | 115.2
17 | Ac-MRWAEMGYIFYPRKLR-NH2 [compound 25] | 27.8
18 | CC[C@H](C)[C@H](NC(=O)[C@H](Cc1ccc(O)cc1)NC(=O)CNC(=O)[C@H](CCSC)NC(=O)[C@H](CCC(=O)O)NC(=O)[C@H](CCC(N)=O)NC(=O)[C@H](Cc1c[nH]c2ccccc12)NC(=O)[C@@H](C)NC(=O)[C@@H](N)CCSC)C(=O)N[C@@H](Cc1ccccc1)C(=O)N[C@@H](Cc1ccc(O)cc1)C(=O)N1CCC[C@H]1C(=O)N[C@@H](CCCNC(=N)N)C(=O)N[C@@H](CCCCN)C(=O)N[C@@H](CC(C)C)C(=O)N[C@@H](CCCNC(=N)N)C(=O)O [compound 137] (HELM PEPTIDE1{M.[dA].W.Q.E.M.G.Y.I.F.Y.P.R.K.L.R}$$$$V2.0) | 91.4
19 | Ac-MRWQEMGYIFEPRKLR-NH2 [compound 192] | 66.8
20 | CC[C@H](C)[C@@H]1NC(=O)[C@H](Cc2ccc(O)cc2)NC(=O)CNC(=O)[C@@H](NC(=O)[C@H](CCC(=O)O)NC(=O)[C@H](CCC(N)=O)NC(=O)[C@H](Cc2c[nH]c3ccccc23)NC(=O)[C@H](CCCNC(=N)N)NC(=O)[C@H](CCSC)NC(C)=O)CSSC[C@@H](C(=O)N[C@@H](CCCNC(=N)N)C(=O)N[C@@H](CCCCN)C(=O)N[C@@H](CC(C)C)C(=O)N[C@@H](CCCNC(=N)N)C(N)=O)NC(=O)[C@H](Cc2ccc(O)cc2)NC(=O)[C@H](Cc2ccccc2)NC1=O [compound 225] (HELM PEPTIDE1{[ac].M.R.W.Q.E.C.G.Y.I.F.Y.C.R.K.L.R.[am]}$PEPTIDE1,PEPTIDE1,7:R3-13:R3$$$V2.0) | 97.0
21 | Ac-MRWEEMGYIFYPRKLR-NH2 [compound 186] | 102.1
22 | CC[C@H](C)[C@H](NC(=O)[C@H](Cc1ccc(O)cc1)NC(=O)CNC(=O)[C@H](CCSC)NC(=O)[C@H](CCC(=O)O)NC(=O)[C@@H](C)NC(=O)[C@H](Cc1c[nH]c2ccccc12)NC(=O)[C@H](CCCNC(=N)N)NC(=O)[C@@H](N)CCSC)C(=O)N[C@@H](Cc1ccccc1)C(=O)N[C@@H](Cc1ccc(O)cc1)C(=O)N1CCC[C@H]1C(=O)N[C@@H](CCCNC(=N)N)C(=O)N[C@@H](CCCCN)C(=O)N[C@@H](CC(C)C)C(=O)N[C@@H](CCCNC(=N)N)C(=O)O [compound 139] (HELM PEPTIDE1{M.R.W.[dA].E.M.G.Y.I.F.Y.P.R.K.L.R}$$$$V2.0) | 58.1
23 | CC[C@H](C)[C@@H]1NC(=O)[C@H](Cc2ccc(O)cc2)NC(=O)CNC(=O)[C@H](CCSC)NC(=O)[C@H](CCC(=O)O)NC(=O)[C@@H](NC(=O)[C@H](Cc2c[nH]c3ccccc23)NC(=O)[C@H](CCCNC(=N)N)NC(=O)[C@@H](N)CCSC)CCC(=O)NCCCC[C@@H](C(=O)N[C@@H](CCCNC(=N)N)C(=O)N[C@@H](CCCCN)C(=O)N[C@@H](CC(C)C)C(=O)N[C@@H](CCCNC(=N)N)C(=O)O)NC(=O)[C@H](Cc2ccc(O)cc2)NC(=O)[C@H](Cc2ccccc2)NC1=O [compound 223] (HELM PEPTIDE1{M.R.W.E.E.M.G.Y.I.F.Y.K.R.K.L.R}$PEPTIDE1,PEPTIDE1,4:R3-12:R3$$$V2.0) | 64.6
24 | CC[C@H](C)[C@H](NC(=O)[C@H](Cc1ccc(O)cc1)NC(=O)CNC(=O)[C@@H](C)NC(=O)[C@H](CCC(=O)O)NC(=O)[C@H](CCC(N)=O)NC(=O)[C@H](Cc1c[nH]c2ccccc12)NC(=O)[C@H](CCCNC(=N)N)NC(=O)[C@H](CCSC)NC(C)=O)C(=O)N[C@@H](Cc1ccccc1)C(=O)N[C@@H](Cc1ccc(O)cc1)C(=O)N1CCC[C@H]1C(=O)N[C@@H](CCCNC(=N)N)C(=O)N[C@@H](CCCCN)C(=O)N[C@@H](CC(C)C)C(=O)N[C@@H](CCCNC(=N)N)C(N)=O [compound 157] (HELM PEPTIDE1{[ac].M.R.W.Q.E.[dA].G.Y.I.F.Y.P.R.K.L.R.[am]}$$$$V2.0) | 85.0
